Measured values reported in US10787651B2, “Bradyrhizobium monooxygenase and use thereof for preparation of chiral sulfoxide” (JIANGSU AOSAIKANG PHARMACEUTICAL CO., LTD., priority 2018, dated 2020).
Positions count from the first letter of the chain named.

How the values were obtained:
purified BoTEMO enzyme = assay: Specific activity and ee of purified BoTEMO enzyme against a series of thioethers; assay type: biochemical, Bradyrhizobium oligotrophicum ECU1212; conditions: pH 9.0, 25° C.
Procedure: To 0.5 ml of potassium phosphate buffer (100 mmol/L, pH 9.0) was added purified BoTEMO enzyme (purified BoTEMO enzyme prepared in accordance with the method of Example 5). A thioether substrate dissolved in DMSO was added so that the final concentration of the thioether was 0.2-2 mmol/L and the final concentration of DMSO was 2% (v/v), and NADPH was added to a final concentration 0.2-2 mmol/L. At 25° C., the reaction was stirred at 1000 rpm under shaking. After completion of reaction, 0.6 ml of ethyl acetate was added for extraction. The extract was dried over anhydrous sodium sulfate. The organic clear liquid was taken up, and evaporated overnight to remove the solvent. Then, the residue was dissolved with 0.5 ml of isopropanol and analyzed for measuring the ee value of product.
The particular analysis conditions of conversion rate and ee value of product are as follows:
(§1) The analysis is carried out with a high performance liquid chromatograph (HPLC) under the conditions of: a chiral OD-H column ([…], 5 μm particle size, Daicel), a mobile phase of n-hexane:isopropanol=93:7, a flow rate of 1 ml/min, and UV detection at 254 nm; or an AS-H column (250 mm×4.6 mm, 5 μm particle size, Daicel), a mobile phase of n-hexane:isopropanol=55:45, a flow rate of 0.5 mL/min, and UV detection at 254 nm.
The activity of BoTEMO for catalyzing the asymmetrical oxidation of a series of thioether substrates to produce optically active sulfoxides was further determined by the method in accordance with Example.

Recombinant BoTEMO = assay: Asymmetric oxidation of thioethers by recombinant BoTEMO crude enzyme with glucose dehydrogenase recycling; assay type: biochemical, Bradyrhizobium oligotrophicum ECU1212; conditions: 25° C.
Procedure: as §1
To 0.5 ml potassium phosphate buffer (100 mmol/L, pH 9.0) was added 100 μL of crude enzyme solution of BoTEMO (the crude enzyme solution in accordance with the method of Example 5) and a crude enzyme solution of glucose dehydrogenase, and thioanisole, methanol, NADP^+ and glucose were added to the final concentration of 2 mmol/L, 10% (v/v), 0.2 mmol/L and 3.6 g/L, respectively. At 25° C. and 1000 rpm, the mixture was shaken for 1 h. After completion of reaction, 0.6 ml of ethyl acetate was added for extraction. The extract was dried over anhydrous sodium sulfate, and evaporated to remove the solvent. Then, the residue was dissolved in 0.5 ml of isopropanol. The mixture was analyzed in accordance with the method of Example 7 for measure the conversion of reaction and the ee value of product. The conversion of reaction was above 99%, and the ee value of product was above 99% (S).
To 0.5 ml of potassium phosphate buffer (100 mmol/L, pH 9.0) was added 100 μL crude enzyme solution of BoTEMO (the crude enzyme solution prepared in accordance with the method of Example 5) and a crude enzyme solution of glucose dehydrogenase, and omeprazole thioether, methanol, NADP^+ and glucose were added to the final concentrations of 0.2 mmol/L, 10% (v/v), 0.2 mmol/L and 3.6 g/L, respectively. At 25° C. and 1000 rpm, the mixture was shaken for 1 h. After completion of reaction, 0.6 ml of ethyl acetate was added for extraction. […] Then, the residue was dissolved in 0.5 ml isopropanol, and the solution was analyzed in accordance with the method of Example 7 for measuring the conversion of reaction and the ee value of product. […]
To 10 ml of potassium phosphate buffer (100 mmol/L, pH 9.0) was added 0.1 g of lyophilized crude enzyme powders of BoTEMO (crude enzyme powders prepared in accordance with the method of Example 5) and 0.02 g of lyophilized crude enzyme powder of glucose dehydrogenase (15 U/mg), and 1-3 g/L of omeprazole thioether/lansoprazole thioether/pantoprazole thioether/rabeprazle thioether/ilaprazole thioether, 10% (v/v) of methanol, 0.2 mmol/L of NADP^+ and 10 g/L of glucose were added. […] Then, the residue was dissolved in 0.5 ml of isopropanol, and the solution was analyzed in accordance with the method of Example 7 for measuring the conversion of reaction and the ee value of product. […]

[1] = tested on: Bradyrhizobium oligotrophicum ECU1212 resting cells; assay: Asymmetric oxidation of thioethers by whole resting cells; assay type: cell-based; conditions: 37 g/L substrate, 1 g lyophilized cells in 100 ml, 28° C., 24 h
Procedure: Optionally, resting cells harvested from the culture of Bradyrhizobium oligotrophicum ECU1212 are used to asymmetrically catalyze the oxidation of lansoprazole thioether to prepared (R)-lansoprazole under the conditions that the thioether substrate concentration is 0.1 g/L, the catalyst loading is 10 g/L, and the reaction is carried out at 30° C. under stirring at 180 rpm. The conversion rate of lansoprazole thioether can be up to 80%, and the optical purity can be up to 99% ee(R). it can be seen that the Bradyrhizobium oligotrophicum ECU1212 comprises functional enzyme(s) which serve to asymmetrically catalyze the oxidation and have a high catalytic conversion rate. Thus, it can solve the problem that the conventional bio-catalysts have low conversion rate in the asymmetric catalytic oxidation process. […]
To 100 ml Tris-HCl buffer (100 mmol/L, pH 9.0) was added 1 g of Bradyrhizobium oligotrophicum ECU1212 lyophilized cells (lyophilized cells prepared in accordance with Example 2), and thioanisole and methanol were added to a final concentration of 37 g/L, 10% (v/v). […] Then, the residue was dissolved in 0.5 ml isopropanol, and the solution was analyzed in accordance with the method of Example 7 for the conversion of reaction and the ee value of product. […]

Lysinibacillus = conditions: substrate loading 0.1 g/L, after 48 fermentation cultivation; cited from earlier work
[2] = Activity of recombinant BoTEMO by change of absorbance at 340 nm (NADPH); assay type: biochemical
Procedure: The activity of BoTEMO and glucose dehydrogenase was determined by measuring the change of absorbance at 340 nm with a spectrophotometer.
(§2) The activity of BoTEMO was determined as follows. To 1 ml of the reaction system (100 mmol/L Tris-HCl buffer, pH 9.0) was added 1 mmol/L thioanisole and 0.2 mmol/L NADPH. The mixture was kept at 30° C. for 2 min, and then an appropriate amount of crude enzyme solution prepared in accordance with Example 5 was added. The mixture was rapidly mixed to uniform, and measured for the change of absorbance at 340 nm. The specific activity of the crude enzyme solution was determined as 101 mU/ml.
(§3) The enzyme activity was calculated in accordance with the equation of: Enzyme Activity (U)=EW×V×10^3/(6220×1).
(§4) In the equation, EW represents the change of absorbance at 340 nm in 1 min; V represents the volume of the reaction mixture (in ml); 6220 represents the molar extinction coefficient of NADPH (in L/(mol·cm)); and 1 represents the optical path distance (in cm). Each unit of BoTEMO is defined as the enzyme amount required to catalyze the oxidation of 1 μmol NADPH per minute under the foregoing conditions. Each unit of glucose dehydrogenase is defined as the enzyme amount required to catalyze the reduction of 1 μmol NADP^+ per minute under the foregoing conditions.

[3] = Enzyme activity of BoTEMO-M1 and BoTEMO-M2 powders (method of Example 6); assay type: biochemical; conditions: lyophilized crude enzyme powders; for enzyme activity relative to BoTEMO: times that of BoTEMO
Procedure: as §2, §3, §4
Recombinant transformants were prepared from the foregoing two mutant genes of BoTEMO-M1 and BoTEMO-M2 in accordance with the method of Example 4. Resting cells and lyophilized crude enzyme powders were prepared in accordance with the method of Example 5. And further, the enzyme activities of BoTEMO-M1 and BoTEMO-M2 powders were measured in accordance with the method of measuring the enzyme activity of Example 6. The enzyme activities of BoTEMO-M1 and BoTEMO-M2 are 7.6 times that of BoTEMO (BoTEMO-M1) and 1.6 times (BoTEMO-M2), respectively. The activity against the lansoprazole thioether reaches 20 U/g (BoTEMO-M1) and 4.2 U/g (BoTEMO-M2).

Question: With `COc1ccnc(CSc2nc3cc(OC(F)F)ccc3[nH]2)c1OC` [compound 7] as the molecule, how does the “Specific Activity” value (purified BoTEMO enzyme) read?
Answer: + (“+”: <10 U/g)

Question: Which conversion of reaction (Recombinant BoTEMO; crude enzyme solution, 2 mmol/L substrate, 1 h) does the source give for `CSc1ccccc1` [thioanisole] here?
Answer: above 99%

Question: What about the conversion of reaction [1] of the same molecule?
Answer: above 99%

Question: Which “Specific Activity” value (purified BoTEMO enzyme) does the source give for `COCCCOc1ccnc(CSc2nc3ccccc3[nH]2)c1C` [compound 6] here?
Answer: + (“+”: <10 U/g)

Question: With `CSc1ccccc1` [compound 1] as the molecule, how does the “Specific Activity” value (purified BoTEMO enzyme) read?
Answer: +++ (“+++”: >100 U/g)

Question: With `COc1ccc2[nH]c(SCc3ncc(C)c(OC)c3C)nc2c1` [compound 2] as the molecule, how does the “Specific Activity” value (purified BoTEMO enzyme) read?
Answer: ++ (“++”: 10 ~ 100 U/g)

Question: For `COc1ccc2[nH]c(SCc3ncc(C)c(OC)c3C)nc2c1` [omeprazole thioether], which conversion of reaction (Recombinant BoTEMO; 1 g crude enzyme powders in 100 ml, 1 g/L substrate, 3 h) is on record?
Answer: above 99%

Question: What about the conversion of reaction (Recombinant BoTEMO; crude enzyme solution, 0.2 mmol/L substrate, 1 h) of the same molecule?
Answer: above 99%

Question: What about the conversion (Lysinibacillus) of the same molecule?
Answer: 77%

Question: For `COc1ccc2[nH]c(SC)nc2c1` [compound 5], which “Specific Activity” value (purified BoTEMO enzyme) is on record?
Answer: + (“+”: <10 U/g)

Question: Which “Specific Activity” value (purified BoTEMO enzyme) does the source give for `Cc1c(OCC(F)(F)F)ccnc1CSc1nc2ccccc2[nH]1` [compound 8] here?
Answer: + (“+”: <10 U/g)

Question: Which “Specific Activity” value (purified BoTEMO enzyme) does the source give for `CSc1ccc(C)cc1` [compound 4] here?
Answer: + (“+”: <10 U/g)

Question: Which “Specific Activity” value (purified BoTEMO enzyme) does the source give for `COc1ccnc(CSc2nc3cc(-n4cccc4)ccc3[nH]2)c1C` [compound 3] here?
Answer: ++ (“++”: 10 ~ 100 U/g)

B1: BoTEMO: Bradyrhizobium oligotrophicum ECU1212 Thioether Monooxygenase, amino acid sequence SEQ ID No. 2 (protein)
chain: MSTEHVDVLIVGAGLSGIAAAYHLQHKCPGKRFALLEGRGALGGTWDLFRYPGIRSDSDMYTLGYSFKPWTDPKAIADGPQILKYVQDTATENGIDRHIRFNHRVRRASWSSADARWTVEAERQTAQGTTETVSMTCGFLFMCSGYYRYEKGYLPDFKGMADFKGRIVHPQAWPADLDYAGKRVVVIGSGATAVTLVPAMAKTAAHVTMLQRSPTYVVSRPAQDALANKLREHLPAGLAYHLIRWRNVLFGMYFFQLSRRKPQRVKQLILGGVRAALGPDYDVATHFTPRYNPWDQRLCLVPDGDLFRTIREQRASVVTAGIDTFTERGLRLSDGRELEAEIVVTATGLVLQVLGGSEVVVDGRTVDFAKTLNYKGMMYSDVPNMAATLGYTNFSWTLKCDLTCEYVCRLLNYMDRHGYRQCVPHNDDTTVTPLPSLSFSSGYVQRSIADLPKQGSKRPWRLYQNYALDIVSLRFGKVDDGVMRYS
modifications: Bradyrhizobium oligotrophicum ECU1212
Question: What does the source list for B1?
Answer: specific activity of the crude enzyme solution ([2]; 1 mmol/L thioanisole, 0.2 mmol/L NADPH, pH 9.0, 30° C.): 101 mU/ml; activity of lyophilized crude enzyme solution powders on thioanisole ([2]; lyophilized crude enzyme powders): 0.2 U/mg

B2: BoTEMO-M2: BoTEMO mutant, Ser357Ile, Phe394Ala, SEQ ID No. 6 (protein)
chain: B1 chain with S357I, F394A
modifications: VARIANT
Question: For B2, which “activity against the lansoprazole thioether” value [3] is on record?
Answer: 4.2 U/g

Question: And the “enzyme activity relative to BoTEMO” value [3]?
Answer: 1.6 times

B3: BoTEMO-M1: BoTEMO mutant, Asp295Cys, Ser395Leu, Trp396Ala, SEQ ID No. 4 (protein)
chain: B1 chain with D295C, S395L, W396A
modifications: VARIANT
Question: For B3, which “activity against the lansoprazole thioether” value [3] is on record?
Answer: 20 U/g

Question: What about the “enzyme activity relative to BoTEMO” value [3] of the same molecule?
Answer: 7.6 times
